Data on 18 molecules can be found in PubChem BioAssay (NCI).

Some test systems named below: HOP-92 NSCLC; UO-31 renal; A549 NSCLC; KM12 colon; U251 CNS; SK-MEL-5 melanoma; HT29 colon; NCI-H460 lung; HOP-18 NSCLC; M19-MEL melanoma.
Holding throughout (assay): NCI anticancer screen, dose series, 48 h

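Five compound concentrations were applied to cells in 96-well plates for 48 hours; endpoints were derived by simple linear interpolation of the resulting dose-response curve. At the GI50, growth is halved. TGI marks complete inhibition of growth.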 Where a SMILES comes first, the peptide text is derived from it. [ ]: non-standard residue; d: D form. The star is where a group is joined. ξ: configuration not given here. ξF = NC(Cc1ccccc1)C(=O)O; Cbz = O=C(OCc1ccccc1)*; Aib = CC(C)(N)C(=O)O

On to `COc1cc(Nc2nnc3n2S(=O)(=O)c2cc(C)c(Cl)cc2S3)cc(OC)c1`, for which the TGI in the assay with HOP-92 NSCLC is 27 µM; with UO-31 renal, over 100 µM; with A549 NSCLC it was 30 µM; in the assay with KM12 colon, over 100 µM; in the assay on U251 CNS it was 29.2 µM; in the assay on SK-MEL-5 melanoma it was 68.7 µM. In addition, the TGI in the assay with HT29 colon and in the assay with NCI-H460 lung was over 100 µM in each case.
For the molecule `C(=N\OCCc1ccccc1)/c1cccnc1`, the TGI in the assay on HOP-92 NSCLC, in the assay with UO-31 renal, in the assay on A549 NSCLC, in the assay with KM12 colon, with U251 CNS and in the assay with SK-MEL-5 melanoma was over 100 µM each time. Besides, the TGI in the assay with HT29 colon and in the assay on NCI-H460 lung was over 100 µM throughout.
On to `COC(=O)C(C)(C)NC(=O)C(Cc1ccccc1)NC(=O)C(C)(C)NC(=O)OCc1ccccc1` (centres undefined) (Cbz-[Aib]-[ξF]-[Aib]-OMe), for which the TGI in the assay on UO-31 renal, with A549 NSCLC, in the assay on U251 CNS, with SK-MEL-5 melanoma, in the assay with HT29 colon and in the assay with NCI-H460 lung was over 100 µM throughout.
On to `Cc1ccc(C(O)(c2ccc(C)cc2)c2ccccn2)cc1`, for which the TGI in the assay with UO-31 renal, in the assay on HOP-18 NSCLC, in the assay with A549 NSCLC, in the assay on U251 CNS, in the assay on M19-MEL melanoma and in the assay on SK-MEL-5 melanoma was over 100 µM throughout. Also, the TGI with HT29 colon and in the assay with NCI-H460 lung was over 100 µM throughout.
As to `CC(C)(C)c1cc(OCc2nnc3sc(=S)[nH]n23)c(Cl)cc1OCc1nnc2sc(=S)[nH]n12`, the TGI in the assay on HOP-92 NSCLC was 53.3 µM; with UO-31 renal, 82.4 µM; in the assay on A549 NSCLC, over 100 µM; in the assay with KM12 colon, 68.7 µM; in the assay on U251 CNS it was 65.2 µM; with SK-MEL-5 melanoma, 29.5 µM. In addition, the TGI in the assay on HT29 colon is over 100 µM; in the assay on NCI-H460 lung it was 81.8 µM.
With `COc1cc(-c2n/c(=C\c3c(O)[nH]c4cc(Cl)ccc34)cc3c2=Nc2ccccc2-3)cc(OC)c1OC`, the GI50 is 18.3 µM in the assay with UO-31 renal; 4.8 µM in the assay with A549 NSCLC; 5.89 µM in the assay with KM12 colon; 1.71 µM with U251 CNS; 3.98 µM in the assay with SK-MEL-5 melanoma; 2.67 µM in the assay with HT29 colon. In the assay on NCI-H460 lung, the GI50 is 4.56 µM. Moreover, the TGI with UO-31 renal is over 100 µM; in the assay on A549 NSCLC, 21.9 µM; with KM12 colon it was over 100 µM; with U251 CNS, 3.36 µM; in the assay with SK-MEL-5 melanoma, 23 µM; in the assay on HT29 colon it was 7.05 µM. The molecule also yielded a TGI with NCI-H460 lung of 81.7 µM.
`COC1=CC(=O)c2c(c(COP(=O)(N(C)CCBr)N(C)CCBr)cn2C)C1=O`: the TGI in the assay with UO-31 renal came out at 0.294 µM; with A549 NSCLC it was 0.659 µM; with KM12 colon it was 1.07 µM; in the assay on U251 CNS it was 0.448 µM; in the assay on SK-MEL-5 melanoma, 0.328 µM; in the assay with HT29 colon, 0.222 µM. Moreover, in the assay on NCI-H460 lung, the TGI was 0.983 µM.
For the molecule `Nc1nc2ccc(OCC(O)CN3CCCCC3)cc2[n+]([O-])n1` (centres undefined), the TGI with HOP-92 NSCLC, in the assay with UO-31 renal, in the assay on A549 NSCLC, with KM12 colon, with U251 CNS and in the assay on SK-MEL-5 melanoma was over 100 µM each time. The TGI in the assay on HT29 colon and in the assay with NCI-H460 lung was over 100 µM each time.
`CCOc1ccc(N=NS(=O)(=O)O)cc1`: the TGI with HOP-92 NSCLC, in the assay on UO-31 renal, with A549 NSCLC, with KM12 colon, in the assay with U251 CNS and in the assay with SK-MEL-5 melanoma was over 100 µM in each case. Further, the TGI in the assay with HT29 colon and in the assay on NCI-H460 lung was over 100 µM in each case.
In the case of `Nc1c(-c2ccccc2[N+](=O)[O-])nc2ccccn12`, the TGI in the assay on HOP-92 NSCLC, in the assay on UO-31 renal, with KM12 colon, in the assay on U251 CNS, in the assay with M19-MEL melanoma and in the assay on SK-MEL-5 melanoma was over 100 µM throughout. Moreover, the TGI in the assay with HT29 colon and with NCI-H460 lung was over 100 µM in each case.
For the molecule `Clc1ccc(-c2ccc(-c3nnc(COc4ccc(OCc5nnc(-c6ccc(-c7ccc(Cl)cc7Cl)o6)o5)c(Cl)c4)o3)o2)c(Cl)c1`, the TGI with UO-31 renal, in the assay with A549 NSCLC, in the assay on KM12 colon, with U251 CNS, in the assay with SK-MEL-5 melanoma and in the assay with HT29 colon was over 100 µM throughout. In the assay on NCI-H460 lung, this molecule returned a TGI of over 100 µM.
`CCCCOCc1cc(CN2CCN(C)CC2)c(O)c2ncccc12`: the TGI is over 100 µM with HOP-92 NSCLC; 55.8 µM with UO-31 renal; 39.9 µM in the assay with HOP-18 NSCLC; over 100 µM in the assay on A549 NSCLC; over 100 µM in the assay on KM12 colon; 44.4 µM in the assay on U251 CNS. Further, the TGI in the assay with M19-MEL melanoma was over 100 µM; in the assay on SK-MEL-5 melanoma, 26.8 µM; in the assay with HT29 colon, over 100 µM; with NCI-H460 lung, over 100 µM.
Consider `Cc1ccc(N2CCN(CCC(=O)O)CC2)cc1`, for which the TGI in the assay on HOP-92 NSCLC, in the assay on UO-31 renal, in the assay with A549 NSCLC, with KM12 colon, with U251 CNS and with SK-MEL-5 melanoma was over 100 µM each time. Further, the TGI in the assay with HT29 colon and with NCI-H460 lung was over 100 µM throughout.
With `C[CH2][Ge]([CH2]C)([CH2]C)[O]C(=O)CCC(=O)[O][Ge]([CH2]C)([CH2]C)[CH2]C`, the GI50 is 16.2 µM in the assay on HOP-92 NSCLC; 87.5 µM with UO-31 renal; over 100 µM in the assay on HOP-18 NSCLC; 68.5 µM with A549 NSCLC; 55.2 µM in the assay with KM12 colon; 43.3 µM in the assay on U251 CNS. The GI50 with M19-MEL melanoma is over 100 µM; in the assay with HT29 colon, 40.2 µM; with NCI-H460 lung it was 24.8 µM. In addition, the TGI with HOP-92 NSCLC, in the assay on UO-31 renal, with HOP-18 NSCLC, in the assay with A549 NSCLC, with KM12 colon and in the assay on U251 CNS was over 100 µM in each case. For the same molecule, the TGI in the assay with M19-MEL melanoma, with HT29 colon and in the assay with NCI-H460 lung was over 100 µM in each case.
Turning to `CC(C)(CCCCC(C)(C)C1NC(=O)N1)C1NC(=O)N1`, the TGI with UO-31 renal, in the assay with A549 NSCLC, in the assay with KM12 colon, in the assay on U251 CNS, in the assay with SK-MEL-5 melanoma and in the assay with HT29 colon was over 10 µM each time. In the assay on NCI-H460 lung, this molecule came in with a TGI of over 10 µM.
Regarding `CC(C)CC(NC(=O)C(Cc1ccccc1)NC(=O)C(Cc1c[nH]c2ccccc12)NC(=O)CNC(=O)C(N)Cc1ccc(O)cc1)C(=O)O` (centres undefined) (H-YGWFL-OH; configuration not given here), the TGI in the assay on HOP-92 NSCLC is 42.1 µM; in the assay on UO-31 renal, over 100 µM; in the assay with A549 NSCLC, over 100 µM; in the assay on KM12 colon, 57.4 µM; with U251 CNS, over 100 µM; in the assay on SK-MEL-5 melanoma, over 100 µM. The TGI in the assay on HT29 colon and in the assay with NCI-H460 lung was over 100 µM in each case.
Consider `CCOC(=O)CCC(NC(=O)OCc1ccccc1)C(=O)NC(CCC(=O)OCC)C(=O)NNC(=O)OC(C)(C)C` (centres undefined), for which the TGI in the assay with HOP-92 NSCLC, in the assay with UO-31 renal, in the assay with KM12 colon, in the assay on U251 CNS, in the assay with SK-MEL-5 melanoma and in the assay on NCI-H460 lung was over 100 µM in each case.
In the case of `COc1cc(S(=O)(=O)Nc2ccc(-c3csc(N4C(=O)C(Cl)C4c4ccccc4)n3)cc2)ccc1Cl` (centres undefined), the TGI in the assay with HOP-92 NSCLC was 33.7 µM; in the assay with UO-31 renal it was 63.1 µM; in the assay on A549 NSCLC, over 100 µM; in the assay on KM12 colon, over 100 µM; in the assay on SK-MEL-5 melanoma, 88.1 µM; with HT29 colon it was over 100 µM. Further, the TGI in the assay with NCI-H460 lung was over 100 µM.
